Test results from patent US10517869B2 (SENTISS PHARMA PRIVATE LIMITED, priority 2013, dated 2019).
Read-outs that look alike come from different tables or passages of the source. Blank lines part the entries; values can stand above or below the molecule they belong to.

What was measured:
[1] = cited from earlier work
[2] = at a pH of 6.4
[3] = Compatibility of quaternary ammonium preservative with brimonidine (precipitation); format: physicochemical; details: pH of around 6.0
Source text: Benzododecinium bromide forms an ion pair with brimonidine, thereby neutralizing the charge of brimonidine.
Benzododecinium halide (e.g., bromide) forms an ion pair with brimonidine, thereby neutralizing the charge of brimonidine. […] Thus it was surprising to find that benzododecinium halide is compatible with brimonidine.

Molecule: brimonidine tartrate
Solubility ([1]; Study 1, pH 5.55): ≥164.4
Solubility ([1]; Study 1, pH 5.92): 132.6
Solubility ([1]; Study 1, pH 6.14): 30.4
Solubility ([1]; Study 1, pH 6.57): 7.55
Solubility ([1]; Study 1, pH 7): 2.69
Solubility ([1]; Study 1, pH 7.45): 1.17
Solubility ([1]; Study 1, pH 7.83): 0.62
Solubility ([1]; Study 2, pH 5.5): ≥200.6
Solubility ([1]; Study 2, pH 5.92): 160.8
Solubility ([1]; Study 2, pH 6.06): 50.1
Solubility ([1]; Study 2, pH 6.9): 3.19
Solubility ([1]; Study 2, pH 7.4): 1.19
Solubility ([1]; Study 2, pH 7.77): 0.63
Solubility ([1]; Study 2, pH 7.86): 0.58
Solubility ([1]; Study 2, pH 7.88): 0.54

ionized [2]: about 90%
Molecule: Brc1c(NC2=NCCN2)ccc2nccnc12 [Brimonidine]

Molecule: CCCCCCCCCCCC[N+](C)(C)Cc1ccccc1.[Br-] [benzododecinium bromide]
precipitation with brimonidine [3]: does not form a precipitation with brimonidine

precipitation with brimonidine [3]: forms a hazy solution
Molecule: benzalkonium chloride
